Data reported in patent US5288905A, “Glycyl urea derivatives as anti-convulsants” (G. D. Searle & Co., priority 1991, dated 1994).

Experiments:
mice [1] = experiment: Prevention of 3-mercaptopropionic acid (3-MPA)-induced convulsions in mice; type: in vivo, male Swiss albino mice; details: for Number of Mice Protected From Convulsions Induced by 3-MPA at 100 mg/kg, 30 min interval / Number of Mice Protected From Convulsions Induced by 3-MPA at 100 mg/kg, 2 hr interval: 100 mg/kg orally, 3-MPA 120 mg/kg subcutaneously, two groups of five animals; for Number of Mice Protected From Convulsions Induced by 3-MPA at 100 mg/kg, 30 min interval: 30 min before convulsions induced; for Number of Mice Protected From Convulsions Induced by 3-MPA at 100 mg/kg, 2 hr interval: 2 hr before convulsions induced
Method: (§1) Treatment of a mammal afflicted by or susceptible to certain CNS disorders is accomplished by administration of a therapeutically-effective amount of a compound of Formula I. In particular, Compounds #1-11 of Table II were evaluated by in vitro and in vivo animal model assays to determine the pharmacological properties of such compounds and their likely suitability for use as therapeutic drugs in humans. These biological assays, as described below, consisted of prevention of induced convulsions in mice, determination of acute toxicity in mice and animal behavior assays. Except as otherwise specified, the animals used in the in vivo tests were male Swiss albino mice weight 22 to 33 g [CDl, Charles River, France], housed in groups of 10 on a 12-hour dark-light cycle for at least one week before use and fasted overnight prior to testing.
(§2) Compounds of Formula I were evaluated as inhibitors of convulsions and death induced by different convulsant agents: 3-mercaptopropionic acid (3-MPA; 120 mg/kg subcutaneously), bicuculline (BIC, 0.6 mg/kg intravenously), pentylenetetrazole (PTZ, 55 mg/kg intravenously) and supramaximal electroconvulsive shocks (ECS evoked by a current intensity of 48 mA, 50 Hz. 0.2 sec duration, 10 msec square pulse, corneal electrodes) [W. van Dorsser, D. Barris, A. Cordi and J. Roba, Arch. Int. Pharmacodyn., 266, 239-249 (1983)]. The compounds of the invention were administered orally at a dosage of either 100 mg/kg or 30 mg/kg in a volume of 10 ml/kg each to 5 mice. Tonic convulsions and the number of dead mice were noted. Results are given in Table III as a score which represents the total number of mice protected from convulsions induced by 3-mercaptopropionic acid at dose of 100 mg/kg for two groups of five animals, or the percentage of mice protected from convulsions induced by bicuculline at a dose of 30 mg/kg for four groups of five animals.
(§3) Based upon data generated from the previously-described anti-convulsant experiments, ED50 values were calculated at which Compound #6 inhibits convulsions induced by the convulsant agents listed in Table IV.

mice [2] = test system: mice; parameters: species or system male Swiss albino mice; details: mouse, in vivo, po
Method: as §1
Behavioral effects of compounds of the invention on animals were determined by observations taken at 5 to 6 hours and at 24 hours after administration of compounds in the acute toxicity studies. Determinations were made based on a method derived from that of S. Irwin [See R. A. Turner, Screening Methods in Pharmacology, Chapter 3, pages 22-34, Academic Press, N.Y. (1965)]. If an anomaly were noted, the observation was extended and smaller doses were tested. Possible types of behavior to be observed are as follows: analgesia (AAG), convulsions (CON), depression (DEP), exophthalmia (EOP), excitation (EXC), hyperalgesia (HAG), hypothermia (ATH), hypotonia (ATN), piloerection (PIE), palpebral ptosis (PTO), reduction of the pinna reflux (RPI), reduction of the rearing reflex (RRE), reduction of the flexion reflex (RRF), sedation (SED), tremors (TRE), cyanosis (CYA), diarrhea (DIA), increase of the pinna reflex (HPI), increase of the flexion reflex (HRF), dyspnea (DYS), toxic (TOX), zero ("0") means no effect. Behaviors observed are reported in Table V by numbers which represent the dose at which the behavior is observed.

[3] = Acute toxicity in mice after oral administration; parameters: species or system male Swiss albino mice; details: mouse, in vivo, mortality over 15 days
Method: as §1
The acute toxicity of compounds of the invention was determined after oral administration of the test compound to mice. Compound to be tested was suspended in a 1% tragacanth gum mucilage, and was administered by means of an intragastric probe to a group of three male mice. Doses used in the test were determined by observing toxic effects on the mice, which doses varied from 3,000 mg/kg down to about 3 mg/kg. The mortality was recorded over a period of 15 days. The LD50 results reported in Table V were calculated according to published methods [Lichtfield and Wilcoxon, J. Pharmacol. Exp. Ther., 96, 99 (1949)] and expressed in mg of test compound per kilogram of mouse body weight.

mice [4] = experiment: Prevention of bicuculline (BIC)-induced convulsions in mice; type: in vivo, male Swiss albino mice; details: Mus musculus, po; 30 mg/kg orally; bicuculline 0.6 mg/kg intravenously; four groups of five animals; read-out: Percentage of Mice Protected from Bicuculline
Method: as §1, §2

mice [5] = experiment: 5HTP-induced head twitch in mice; type: in vivo, male Swiss albino mice; details: Mus musculus, po, 2 hours before 5HTP challenge (10 mg/kg i.p.) after nialamide 50 mg/kg i.p.; read-out: ED50 (inhibition of 5HTP-induced head twitches)
Method: as §1
Compound #6 was evaluated for inhibition of head twitches produced in mice by administration of L-5-hydroxytryptophan (5HTP, 10 mg/kg intraperitoneously) after nialamide treatment (50 mg/kg intraperitoneal, 22 hours before the test). The head twitches were counted for 45 min. starting 15 min. after 5HTP administration. [E. Friedmann et al.; Europ. J. Pharmocol., 89, 69-76 (1983)].

rat frontal cortex = experiment: Chronic focal epilepsy assay (cobalt powder on rat frontal cortex, EEG spike activity); type: in vivo; details: ip, intraperitoneal, cobalt-induced spikes, read-out: threshold dose for inhibiting spike activities
Method: In a model of chronic focal epilepsy where cobalt powder is placed on rat frontal cortex, the animals develop, after several days, chronic expression of afterdischarge-like spike activity which can be recorded by EEG. Compound #6 has, when administered by intraperitoneal route, a threshold dose of 200 mg/kg for inhibiting these spike activities with the effect being observed from 30 to 90 minutes.

mice [6] = experiment: Inhibition of pentylenetetrazole (PTZ)-induced convulsions in mice; type: in vivo, male Swiss albino mice; details: Mus musculus, po; convulsant PTZ 55 mg/kg intravenously; compound orally; read-out: Inhibition of Convulsions by Cpd. #6 (ED50), PZT
Method: (§4) Treatment of a mammal afflicted by or susceptible to certain CNS disorders is accomplished by administration of a therapeutically-effective amount of a compound of Formula I. In particular, Compounds #1-11 of Table II were evaluated by in vitro and in vivo animal model assays to determine the pharmacological properties of such compounds and their likely suitability for use as therapeutic drugs in humans. These biological assays, as described below, consisted of prevention of induced convulsions in mice, determination of acute toxicity in mice and animal behavior assays. […]
(§5) Compounds of Formula I were evaluated as inhibitors of convulsions and death induced by different convulsant agents: 3-mercaptopropionic acid (3-MPA; 120 mg/kg subcutaneously), bicuculline (BIC, 0.6 mg/kg intravenously), pentylenetetrazole (PTZ, 55 mg/kg intravenously) and supramaximal electroconvulsive shocks (ECS evoked by a current intensity of 48 mA, 50 Hz. 0.2 sec duration, 10 msec square pulse, corneal electrodes) [W. van Dorsser, D. Barris, A. Cordi and J. Roba, Arch. […]
as §3

mice [7] = experiment: Inhibition of convulsions induced by supramaximal electroconvulsive shocks (ECS) in mice; type: in vivo, male Swiss albino mice; details: Mus musculus, po; ECS 48 mA, 50 Hz, 0.2 sec, corneal electrodes; compound orally; read-out: Inhibition of Convulsions by Cpd. #6 (ED50), ECS
Method: as §4, §5, §3

SMILES	Number of Mice Protected From Convulsions Induced by 3-MPA at 100 mg/kg, 30 min interval (mice [1]) [mice]	Behavior (dose at which the behavior is observed : behavior) (mice [2])	LD50 at 360 h [3] [mg/kg]	responders at 30 mg/kg (mice [4]) [%]	Number of Mice Protected From Convulsions Induced by 3-MPA at 100 mg/kg, 2 hr interval (mice [1]) [mice]	ED50 (mice [5]) [mg/kg]	ED50 (mice [1]; Mus musculus, po, convulsant 3-MPA 120 mg/kg subcutaneously, compound orally, read-out: Inhibition of Convulsions by Cpd. #6 (ED50), 3-MPA) [mg/kg]	minimal effective dose (rat frontal cortex) [mg/kg]	ED50 (mice [6]) [mg/kg]	ED50 (mice [7]) [mg/kg]
CCCCCCCCNC(=O)NC(=O)CNCCCCC [Compound 1, 1-octyl-3-(2-pentylamino-1-oxoethyl)urea]	0	1000:0 mg/kg	> 1000	35						
CCCCCNCC(=O)NC(=O)NCCc1ccccc1 [Compound 2, 1-(2-phenylethyl)-3-(2-pentylamino-1-oxoethyl)urea]	3	1000:SED, RPI, RRE	> 1000	25						
CCCCCCCCNC(=O)NC(=O)CNCCc1ccccc1 [Compound 3, 1-octyl-3-[2-(2-phenylethyl)amino-1-oxoethyl]urea]	6	3000:SED, ATN	> 3000	55	3					
CCCCCCCCNCC(=O)NC(=O)NCCCCCCCC [Compound 4, 1-octyl-3-(2-octylamino-1-oxoethyl)urea]	4	3000:0 mg/kg	> 3000	35	3					
O=C(CNCCc1ccccc1)NC(=O)NCCc1ccccc1 [Compound 5, 1-(2-phenylethyl)-3-[2-(2-phenylethyl)amino-1-oxoethyl]urea]	6	3000:TOX, DEP	1750	45	1					
CCCCCCCCNCC(=O)NC(=O)NCCc1ccccc1 [Compound 6, 1-(2-phenylethyl)-3-(2-octylamino-1-oxoethyl)urea]	9	1000:SED, ATN	> 3000	35	9	200	16	200	56	60
CCCCCNC(=O)NC(=O)CNCCc1ccccc1 [Compound 7, 1-pentyl-3-[2-(2-phenylethyl)amino-1-oxoethyl]urea]	1	1000:SED	> 3000	25						
CCCCCNCC(=O)NC(=O)NCCCCC [Compound 8, 1-pentyl-3-(2-pentylamino-1-oxoethyl)urea]	0		> 3000	40						
CCCCCCCCNCC(=O)NC(=O)NCCCCC [Compound 9, 1-pentyl-3-(2-octylamino-1-oxoethyl)urea]	7	1000:0 mg/kg	> 1000	35	4					
CNC(=O)NC(=O)CNC(c1ccccc1)c1ccccc1 [Compound 10, 1-methyl-3-(2-diphenylmethylamino-1-oxoethyl)urea]	1									
O=C(CNC(c1ccccc1)c1ccccc1)NC(=O)NCCc1ccccc1 [Compound 11, 1-(2-phenylethyl)-3-(2-diphenylmethylamino-1-oxoethyl)urea]	0									
